In data set [1] the target is hERG channels (Homo sapiens (Human), UniProt Q12809). The data set can be described thus: hERG Manual Patch Clamp Assay. In kind it is cell-based. As to conditions: HEK 293 cells stably expressing hERG channels; for inhibition at 1 µM: human, pH 7.4, 1 uM, read-out: hERG EP % Inh @ 1 uM.
Data set [2] has as its target hROMK (human Kir1.1) (Homo sapiens (Human), UniProt P48048). The data set can be described thus: cell-based. As to conditions: CHO T-Rex hROMK stable cell line; thallium flux; 10-point concentration response curve; read-out: Human ROMK Th Flux IC50.

pIC50: −log10 of the molar value.

The term pIC50 denotes −log10 of the IC50, conventionally taken in molar units.

Sequence of hROMK (human Kir1.1) (P48048 whole entry): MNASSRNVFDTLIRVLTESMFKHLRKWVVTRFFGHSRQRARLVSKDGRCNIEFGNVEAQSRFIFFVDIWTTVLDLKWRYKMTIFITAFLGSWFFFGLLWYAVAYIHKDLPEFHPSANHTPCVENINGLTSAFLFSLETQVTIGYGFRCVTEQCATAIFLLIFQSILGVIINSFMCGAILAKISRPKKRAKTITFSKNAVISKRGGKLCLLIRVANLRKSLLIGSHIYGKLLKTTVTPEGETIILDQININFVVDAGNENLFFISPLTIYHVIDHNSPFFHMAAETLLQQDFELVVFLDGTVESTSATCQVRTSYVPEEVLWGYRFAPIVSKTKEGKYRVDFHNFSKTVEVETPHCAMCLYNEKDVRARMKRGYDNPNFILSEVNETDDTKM
Sequence of hERG channels (Q12809 whole entry): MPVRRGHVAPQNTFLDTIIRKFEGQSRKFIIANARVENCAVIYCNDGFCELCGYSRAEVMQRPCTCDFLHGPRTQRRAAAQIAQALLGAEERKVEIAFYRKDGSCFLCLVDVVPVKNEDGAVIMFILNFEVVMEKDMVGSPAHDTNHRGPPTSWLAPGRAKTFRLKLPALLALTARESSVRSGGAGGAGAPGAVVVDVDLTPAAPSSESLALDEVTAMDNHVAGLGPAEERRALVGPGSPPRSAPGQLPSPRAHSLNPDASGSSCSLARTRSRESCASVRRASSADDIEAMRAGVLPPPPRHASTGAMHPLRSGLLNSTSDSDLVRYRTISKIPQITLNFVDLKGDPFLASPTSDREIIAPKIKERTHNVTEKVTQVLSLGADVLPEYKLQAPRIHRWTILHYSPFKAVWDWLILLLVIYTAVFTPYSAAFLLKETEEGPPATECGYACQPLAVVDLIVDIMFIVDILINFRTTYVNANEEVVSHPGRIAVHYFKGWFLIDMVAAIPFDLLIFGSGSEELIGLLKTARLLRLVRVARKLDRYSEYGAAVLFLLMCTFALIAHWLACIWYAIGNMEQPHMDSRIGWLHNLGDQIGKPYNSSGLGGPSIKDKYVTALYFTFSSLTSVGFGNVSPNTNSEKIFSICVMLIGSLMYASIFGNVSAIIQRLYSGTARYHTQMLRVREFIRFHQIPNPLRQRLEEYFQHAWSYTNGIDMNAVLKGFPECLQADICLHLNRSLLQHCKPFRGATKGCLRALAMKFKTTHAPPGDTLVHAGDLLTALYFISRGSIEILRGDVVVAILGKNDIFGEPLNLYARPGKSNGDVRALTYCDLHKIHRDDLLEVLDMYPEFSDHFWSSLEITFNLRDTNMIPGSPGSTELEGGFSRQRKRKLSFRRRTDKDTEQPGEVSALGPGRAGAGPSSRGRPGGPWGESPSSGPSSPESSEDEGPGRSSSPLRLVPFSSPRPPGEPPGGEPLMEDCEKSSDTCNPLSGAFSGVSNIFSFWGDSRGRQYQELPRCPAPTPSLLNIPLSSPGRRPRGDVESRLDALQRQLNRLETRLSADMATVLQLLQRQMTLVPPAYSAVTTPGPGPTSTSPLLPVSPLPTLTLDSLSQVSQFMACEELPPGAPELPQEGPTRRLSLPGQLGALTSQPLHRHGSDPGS

Take `COc1cc(N2CCC(CN3CCN[C@H](c4ccc5c(c4C)COC5=O)C3)C2)ncc1C#N` (single isomer, unassigned) [Example 155-I]: the “hERG EP % Inh @ 1 uM” value in data set [1] (1 uM) came to 26%. For the same compound, in data set [2], the pIC50 is 7.96.
On to `Cc1cc(N2CCC(CN3CCN[C@H](c4ccc5c(c4C)COC5=O)C3)C2)ncc1C#N` (single isomer, unassigned) [Example 156-I], for which the inhibition at 1 µM in data set [1] is 51%. The pIC50 in data set [2] is 7.85.
For the compound `Cc1cc(N2CC(CN3CCN[C@H](c4ccc5c(c4C)COC5=O)C3)CC2=O)ncc1C#N` (single isomer, unassigned) [Example 158-I], the inhibition at 1 µM in data set [1] is 20%. The pIC50 in data set [2] was 7.44.
Regarding `COc1cc(N2CC(CN3C[C@@H](c4ccc5c(c4C)COC5=O)N[C@@H](C)C3)CC2=O)ncc1C#N` (single isomer, unassigned) [Example 170-I], the inhibition at 1 µM in data set [1] came to 26%. The pIC50 in data set [2] is 7.41.
On to `Cc1cc(-n2cc(CN3CCCC(c4ccc5c(c4C)COC5=O)C3)cn2)ncc1C#N` (single isomer, unassigned) [Example 197-I, 4-methyl-6-(4-((3-(4-methyl-1-oxo-1,3-dihydroisobenzofuran-5-yl)piperidin-1-yl)methyl)-1H-pyraozl-1-yl)nicotinonitrile], for which the inhibition at 1 µM in data set [1] is 75%. Besides, the pIC50 in data set [2] was 7.82.
Consider `Cc1cc(-n2cc(CN3CC(O)CC(c4ccc5c(c4C)COC5=O)C3)cn2)ncc1C#N` (single isomer, unassigned) [Example 199-IV, 6-(4-((3-hydroxy-5-(4-methyl-1-oxo-1,3-dihydroisobenzofuran-5-yl)piperidin-1-yl)methyl)-1H-pyrazol-1-yl)-4-methylnicotinonitrile], for which the inhibition at 1 µM in data set [1] came out at 22%. In data set [2], the pIC50 was 7.80.
As to `COC1CC(c2ccc3c(c2C)COC3=O)CN(Cc2cnn(-c3cc(C)c(C#N)cn3)c2)C1` (single isomer, unassigned) [Example 200-II, 6-(4-((3-methoxy-5-(4-methyl-1-oxo-1,3-dihydroisobenzofuran-5-yl)piperidin-1-yl)methyl)-1H-pyrazol-1-yl)-4-methylnicotinonitrile], the inhibition at 1 µM in data set [1] turned out to be 27%. For the same compound, the pIC50 in data set [2] is 7.19.
Turning to `Cc1cc(-n2cc(CN3CC(F)CC(c4ccc5c(c4C)COC5=O)C3)nn2)ncc1C#N` (single isomer, unassigned) [Example 203-I, 6-(4-((3-fluoro-5-(4-methyl-1-oxo-1,3-dihydroisobenzofuran-5-yl)piperidin-1-yl)methyl)-1H-1,2,3-triaozl-1-yl)-4-methylnicotinonitrile], the inhibition at 1 µM in data set [1] is 16%. Also, the pIC50 in data set [2] is 7.37.
As to `Cc1cc(-n2cc(CN3CC(c4ccc5c(c4C)COC5=O)NC(C(F)F)C3)cn2)ncc1C#N` (single isomer, unassigned) [Example 205-I, 6-(4-((3-(difluoromethyl)-5-(4-methyl-1-oxo-1,3-dihydroisobenzofuran-5-yl)piperazin-1-yl)methyl)-1H-pyrazol-1-yl)-4-methylnicotinonitrile], in data set [1], the inhibition at 1 µM amounted to 10%. Moreover, the pIC50 in data set [2] is 7.15.
On to `Cc1cc(-n2cc(CN3CC(O)C(c4ccc5c(c4C)COC5=O)C3)cn2)ncc1C#N` (single isomer, unassigned) [Example 211-I, 6-(4-((3-hydroxy-4-(4-methyl-1-oxo-1,3-dihydroisobenzofuran-5-yl)pyrrolidin-1-yl)methyl)-1H-pyrazol-1-yl)-4-methylnicotinonitrile], for which the inhibition at 1 µM in data set [1] was 58%. Also, in data set [2], the pIC50 was 7.52.
As for `Cc1cc(-n2cc(CN3CC(CO)CC(c4ccc5c(c4C)COC5=O)C3)cn2)ncc1C#N` (single isomer, unassigned) [Example 261-II, 6-(4-((3-(hydroxymethyl)-5-(4-methyl-1-oxo-1,3-dihydroisobenzofuran-5-yl)piperidin-1-yl)methyl)-1H-pyrazol-1-yl)-4-methylnicotinonitrile], the inhibition at 1 µM in data set [1] amounted to 44%. The pIC50 in data set [2] is 7.57.
For `Cc1cc(-c2cc(CN3CC(c4ccc5c(c4C)COC5=O)NC(C)(C)C3)on2)ncc1C#N` (single isomer, unassigned) [Example 268-I, 6-(5-((3,3-dimethyl-5-(4-methyl-1-oxo-1,3-dihydroisobenzofuran-5-yl)piperazin-1-yl)methyl)isoxazol-3-yl)-4-methylnicotinonitrile], the inhibition at 1 µM in data set [1] came to 9%. The pIC50 in data set [2] is 7.70.
For `COc1c(CN2CCN[C@H](c3ccc4c(c3C)COC4=O)C2)cnn1-c1cc(C)c(C#N)cn1` [Example 6-I, (R)-6-(5-methoxy-4-((3-(4-methyl-1-oxo-1,3-dihydroisobenzofuran-5-yl)piperazin-1-yl)methyl)-1H-pyrazol-1-yl)-4-methylnicotinonitrile], in that order: 38% and 7.40.
In the case of `Cc1cc(-n2cc(CN3C[C@@H](c4ccc5c(c4C)COC5=O)OC3=O)cn2)ncc1C#N` [Example 9-I, (R)-4-methyl-6-(4-((5-(4-methyl-1-oxo-1,3-dihydroisobenzofuran-5-yl)-2-oxooxazolidin-3-yl)methyl)-1H-pyrazol-1-yl)nicotinonitrile], the inhibition at 1 µM in data set [1] is 47%. For the same compound, in data set [2], the pIC50 is 7.36.
In the case of `COc1cc(-n2cc(CCN3CCO[C@H](c4ccc5c(c4C)COC5=O)C3)cn2)ncc1C#N` [Example 11-I, (R)-4-methoxy-6-(4-(2-(2-(4-methyl-1-oxo-1,3-dihydroisobenzofuran-5-yl)morpholino)ethyl)-1H-pyrazol-1-yl)nicotinonitrile], the inhibition at 1 µM in data set [1] worked out at 40%. Also, the pIC50 in data set [2] was 7.52.
`Cc1c([C@@H]2CN(Cc3cnc(-n4cnc(C#N)c4)s3)CCN2)ccc2c1COC2=O` [Example 21-I, (R)-1-(5-((3-(4-methyl-1-oxo-1,3-dihydroisobenzofuran-5-yl)piperazin-1-yl)methyl)thiazol-2-yl)-1H-imidazole-4-carbonitrile]: in data set [1], the inhibition at 1 µM came to 8.5%. Besides, the pIC50 in data set [2] is 7.03.
`Cc1c([C@@H]2CN(Cc3cnn(-c4ccc5oc(=O)n(C)c5c4)c3)CCO2)ccc2c1COC2=O` [Example 25-I, (R)-3-methyl-5-(4-((2-(4-methyl-1-oxo-1,3-dihydroisobenzofuran-5-yl)morpholino)methyl)-1H-pyrazol-1-yl) benzo[d]oxazol-2(3H)-one]: in data set [1], the inhibition at 1 µM was found to be 8.7%. Besides, the pIC50 in data set [2] is 7.29.
`COc1c(CN2CCO[C@H](c3ccc4c(c3C)COC4=O)C2)cnn1-c1cc(C)c(C#N)cn1` [Example 26-I, (R)-6-(5-methoxy-4-((2-(4-methyl-1-oxo-1,3-dihydroisobenzofuran-5-yl)morpholino)methyl)-1H-pyrazol-1-yl)-4-methylnicotinonitrile]: in data set [1], the inhibition at 1 µM is 20%. For the same compound, the pIC50 in data set [2] was 7.16.
As for `COc1cc(-n2cnc(CN3CCO[C@H](c4ccc5c(c4C)COC5=O)C3)c2)ncc1C#N` [Example 27-I, (R)-4-methoxy-6-(4-((2-(4-methyl-1-oxo-1,3-dihydroisobenzofuran-5-yl)morpholino)methyl)-1H-imidazol-1-yl) nicotinonitrile], the inhibition at 1 µM in data set [1] was 11%. For the same compound, the pIC50 in data set [2] was 7.49.
For the compound `Cc1c([C@@H]2CN(Cc3cn(-c4ccc(C#N)cn4)cn3)CCO2)ccc2c1COC2=O` [Example 28-I, (R)-6-(4-((2-(4-methyl-1-oxo-1,3-dihydroiso-benzofuran-5-yl)morpho-lino)methyl)-1H-imidazol-1-yl)nicotino-nitrile], in data set [1], the inhibition at 1 µM turned out to be 15%. Besides, the pIC50 in data set [2] is 7.07.
`COc1cc(-c2ncc(CN3CCO[C@H](c4ccc5c(c4C)COC5=O)C3)s2)ncc1C#N` [Example 32-I, (R)-4-methoxy-6-(5-((2-(4-methyl-1-oxo-1,3-dihydroisobenzofuran-5-yl)morpholino)methyl)thiazol-2-yl)nicotino-nitrile]: the inhibition at 1 µM in data set [1] worked out at 6.2%. Further, in data set [2], the pIC50 was 7.62.
Turning to `COc1cc(-c2ccc(CN3CCO[C@H](c4ccc5c(c4C)COC5=O)C3)cn2)ncc1C#N` [Example 35-I, (R)-4-methoxy-5′-((2-(4-methyl-1-oxo-1,3-di-hydroisobenzofuran-5-yl)morpholino)methyl)-[2,2′-bipyridine]-5-carbonitrile], the inhibition at 1 µM in data set [1] was determined as 20%. For the same compound, the pIC50 in data set [2] was 6.92.
For the compound `Cc1c([C@@H]2CN(Cc3ccc(-n4cnc(C#N)c4)nc3)CCO2)ccc2c1COC2=O` [Example 37-I, (R)-1-(5-((2-(4-methyl-1-oxo-1,3-dihydroiso-benzofuran-5-yl)morpho-lino)methyl)pyridin-2-yl)-1H-imidazole-4-carbonitrile], the inhibition at 1 µM in data set [1] came to 6.2%. Further, the pIC50 in data set [2] is 7.80.
On the same counts, the results for `Cc1c([C@@H]2CN(Cc3cnn(-c4ccc(C#N)cc4)c3)CCO2)ccc2c1COC2=O` [Example 40-I, (R)-4-(4-((2-(4-methyl-1-oxo-1,3-dihydroiso-benzofuran-5-yl)morpho-lino)methyl)-1H-pyrazol-1-yl)benzonitrile] are 54% and 7.57.
On the same counts, the results for `Cc1cc(-n2cc(CN3CCO[C@H](c4ccc5c(c4C)COC5=O)C3)cn2)ccc1C#N` [Example 46-I, (R)-2-methyl-4-(4-((2-(4-methyl-1-oxo-1,3-dihydroisobenzofuran-5-yl)morpholino)methyl)-1H-pyrazol-1-yl) benzonitrile] are 43% and 7.59.
With `Cc1cc(C#N)ccc1-n1cc(CN2CCO[C@H](c3ccc4c(c3C)COC4=O)C2)cn1` [Example 47-I, (R)-3-methyl-4-(4-((2-(4-methyl-1-oxo-1,3-dihydroisobenzofuran-5-yl)morpholino)methyl)-1H-pyrazol-1-yl) benzonitrile], in data set [1], the inhibition at 1 µM is 49%. Also, in data set [2], the pIC50 is 7.31.

The values are drawn from patent US10501449B2 (priority 2018, dated 2019).
